Measured values: ChEMBL document CHEMBL1131916, “Novel series of O-substituted 8-quinolines and 4-benzothiazoles as potent antagonists of the bradykinin B2 receptors” (Bioorg Med Chem Lett, 1999)

What was measured:
[1] = test system: B2 bradykinin receptor, Oryctolagus cuniculus; test: % Inhibition of BK-induced (4x10E-8M) contraction of rabbit jugular vein (RJV) at 10E-5 M concentration
B2 bradykinin receptor [2] = molecular target: T1, B2 bradykinin receptor (Cavia porcellus, UniProt O70526); test: Inhibition of BK-induced (4x10E-8M) contraction of isolated guinea pig ileum (GPI); format: functional, tissue-based
T1 sequence (O70526 whole entry): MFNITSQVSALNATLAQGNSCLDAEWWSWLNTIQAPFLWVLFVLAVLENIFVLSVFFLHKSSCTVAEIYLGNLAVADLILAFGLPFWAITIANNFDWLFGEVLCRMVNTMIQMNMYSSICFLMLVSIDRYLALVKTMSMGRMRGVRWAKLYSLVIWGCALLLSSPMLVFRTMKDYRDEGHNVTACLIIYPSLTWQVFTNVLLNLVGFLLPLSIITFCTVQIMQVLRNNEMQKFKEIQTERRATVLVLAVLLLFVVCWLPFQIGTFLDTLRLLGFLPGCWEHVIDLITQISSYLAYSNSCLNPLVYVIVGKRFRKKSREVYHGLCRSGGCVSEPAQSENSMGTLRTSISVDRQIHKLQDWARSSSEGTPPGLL

B2 bradykinin receptor [3] = molecular target: T1, B2 bradykinin receptor; test: Inhibition of specific binding of [3H]BK to bradykinin B2 receptors of guinea pig ileum (GPI); format: tissue-based
Oryctolagus cuniculus [4] = species on record: Oryctolagus cuniculus; test: Compound was tested for the efficacy in the inhibition of BK-induced (4x10E-8M) contraction of rabbit jugular vein (RJV); format: functional
Oryctolagus cuniculus [5] = species on record: Oryctolagus cuniculus; test: Compound was tested for the percent inhibition of BK-induced (4x10E-8M) contraction of rabbit jugular vein (RJV) at 10E-6 M concentration; format: functional

Structure (SMILES) | inhibition [1] [%] | EC50 (B2 bradykinin receptor [2]) [µM] | IC50 (B2 bradykinin receptor [3]) [µM] | Ki (B2 bradykinin receptor [3]) [µM] | EC50 (Oryctolagus cuniculus [4]) [µM] | Inhibition (Oryctolagus cuniculus [5]) [%]
COC(=O)CCCCC(=O)NCC(=O)N(C)c1ccc(OC)c(COc2cccc3ccc(C)nc23)c1SC | 55 | 0.48 | 0.0472 |  |  | 
CCCOc1c(N(C)C(=O)CNC(=O)/C=C/c2ccc(C(F)(F)F)cc2)ccc(OC)c1COc1cccc2ccc(C)nc12 | 82 | 0.22 | 0.0329 | 0.0039 |  | 
Cc1ccc2cccc(OCc3c(Cl)ccc(N(C)C(=O)CNC(=O)/C=C/c4ccc(C(F)(F)F)cc4)c3C#N)c2n1 | 82 | 0.056 | 0.0012 | 0.0003 |  | 
COc1c(N(C)C(=O)CNC(=O)/C=C/c2ccc(C(F)(F)F)cc2)ccc(Cl)c1COc1cccc2ccc(C)nc12 |  | 0.055 | 0.0219 | 0.0025 | 0.028 | 
Cc1ccc2cccc(OCc3c(C)ccc(N(C)C(=O)CNC(=O)/C=C/c4ccc(C(F)(F)F)cc4)c3C)c2n1 | 81 |  | 0.0118 | 0.0013 |  | 
Cc1ccc2cccc(OCc3c(Cl)ccc(N(C)C(=O)CNC(=O)NCCCCN)c3C#N)c2n1 |  | 0.35 | 0.0009 |  |  | 
COc1cccc(/C=C/C(=O)NCC(=O)N(C)c2ccc(Cl)c(COc3cccc4ccc(C)nc34)c2C#N)c1 | 78 | 0.0041 | 0.0007 | 0.0001 |  | 
Cc1nc2c(OCc3c(Cl)ccc(N(C)C(=O)CNC(=O)/C=C/c4ccc(C(F)(F)F)cc4)c3Cl)cccc2s1 |  | 0.1 | 0.023 | 0.0028 | 0.076 | 
Cc1ccc(/C=C/C(=O)NCC(=O)N(C)c2ccc(Cl)c(COc3cccc4scnc34)c2Cl)cc1 | 17 | 1.3 | 1.35 | 0.16 |  | 
Cc1ccc2cccc(OCc3c(Cl)ccc(N(C)C(=O)CNC(=O)NCCCC(=O)O)c3C#N)c2n1 |  | 0.4 | 0.0257 | 0.0029 |  | 
CCNC(=O)NCC(=O)N(C)c1ccc(Cl)c(COc2cccc3ccc(C)nc23)c1C#N |  | 0.29 | 0.0648 |  |  | 
Cc1ccc(/C=C/C(=O)NCC(=O)N(C)c2ccc(Cl)c(COc3cccc4sc(C)nc34)c2Cl)cc1 |  | 0.023 | 0.0142 | 0.0018 | 0.066 | 
C=C/C=C/C(=O)NCC(=O)N(C)c1ccc(Cl)c(COc2cccc3sc(C)nc23)c1Cl |  | 0.26 | 0.0262 | 0.0031 | 5.2 | 
COc1cccc(/C=C/C(=O)NCC(=O)N(C)c2ccc(Cl)c(COc3cccc4sc(C)nc34)c2Cl)c1 |  | 0.054 | 0.0103 | 0.0013 | 0.18 | 
COc1ccc(N(C)C(=O)CNC(=O)/C=C/c2ccc(C(F)(F)F)cc2)c(Cl)c1COc1cccc2ccc(C)nc12 |  | 0.13 | 0.0115 | 0.0013 | 0.26 | 
Cc1ccc(/C=C/C(=O)NCC(=O)N(C)c2ccc(Cl)c(COc3cccc4sc(-c5ccccc5)nc34)c2Cl)cc1 | 15 | 20 | 11 | 1.3 |  | 
COc1c(N(C)C(=O)CNC(=O)/C=C/c2ccc(C(F)(F)F)cc2)ccc(SC)c1COc1cccc2ccc(C)nc12 |  | 1.1 | 0.393 | 0.0454 |  | 41
Cc1nc2c(OCc3c(Cl)ccc(N(C)C(=O)CNC(=O)/C=C/c4ccco4)c3Cl)cccc2s1 |  |  | 0.0298 | 0.0034 |  | 
Cc1nc2c(OCc3c(Cl)ccc(N(C)C(=O)CNC(=O)OCc4ccccc4)c3Cl)cccc2s1 |  |  | 0.0778 | 0.0091 |  | 
COc1ccc(/C=C/C(=O)NCC(=O)N(C)c2ccc(SC)c(COc3cccc4ccc(C)nc34)c2SC)cc1 |  | 0.66 | 0.0569 | 0.0063 | 8.7 | 
COc1ccc(N(C)C(=O)CNC(=O)/C=C/c2cccc(C)c2)c(OC)c1COc1cccc2ccc(C)nc12 | 68 |  | 0.0813 | 0.0092 |  | 
CCNC(=O)NCC(=O)N(C)c1ccc(OC)c(COc2cccc3ccc(C)nc23)c1C#N | 59 | 0.45 | 0.0538 |  |  | 
COc1ccc(N(C)C(=O)CNC(=O)/C=C/c2ccc(NC(C)=O)nc2)c(SC)c1COc1cccc2ccc(C)nc12 | 95 | 0.059 | 0.0052 | 0.0006 |  | 
